Assay results as given in the NIST ThermoML archive (doi:10.1016/j.fluid.2014.10.004).
± gives the expanded uncertainty stated by the source.

How the values were obtained:
[1] = xn = mol fraction of the nth substance listed; details: 101.3 kPa, Liquid, Sing-around technique in a fixed-path interferometer
[2] = refractive index (Na D-line) (dimensionless); xn = mol fraction of the nth substance listed; details: 101.3 kPa, Liquid, Standard Abbe refractometry

ClCCCCCl [1,4-dichlorobutane] + C[N+](=O)[O-]
Details | refractive index, 298.15 K | refractive index, 308.15 K | refractive index, 318.15 K | speed of sound, 298.15 K [m/s] | speed of sound, 308.15 K [m/s] | speed of sound, 318.15 K [m/s]
[1], x1 = 0.0825 | – | – | – | 1308.1 ± 1.7 | 1269.3 ± 1.7 | 1230.6 ± 1.7
[1], x1 = 0.1759 | – | – | – | 1298.3 ± 1.6 | 1260 ± 1.6 | 1221.8 ± 1.6
[1], x1 = 0.2825 | – | – | – | 1291.3 ± 1.5 | 1253.5 ± 1.5 | 1215.8 ± 1.5
[1], x1 = 0.3815 | – | – | – | 1287.2 ± 1.5 | 1249.9 ± 1.5 | 1212.7 ± 1.4
[1], x1 = 0.4815 | – | – | – | 1285 ± 1.4 | 1248 ± 1.4 | 1211.2 ± 1.4
[1], x1 = 0.5911 | – | – | – | 1284 ± 1.3 | 1247.3 ± 1.3 | 1210.8 ± 1.3
[1], x1 = 0.6898 | – | – | – | 1283.9 ± 1.3 | 1247.5 ± 1.3 | 1211.3 ± 1.3
[1], x1 = 0.8208 | – | – | – | 1284.6 ± 1.2 | 1248.6 ± 1.2 | 1212.8 ± 1.2
[1], x1 = 0.9262 | – | – | – | 1285.7 ± 1.2 | 1249.9 ± 1.2 | 1214.4 ± 1.2
[1], x1 = 1 | – | – | – | 1286.6 ± 1.2 | 1251 ± 1.2 | 1215.7 ± 1.2
[2], x1 = 0.0825 | 1.38965 ± 0.0004 | 1.38514 ± 0.0004 | 1.38078 ± 0.0004 | – | – | –
[2], x1 = 0.1759 | 1.39985 ± 0.00038 | 1.39614 ± 0.00038 | 1.39174 ± 0.00038 | – | – | –
[2], x1 = 0.2825 | 1.40987 ± 0.00037 | 1.40646 ± 0.00037 | 1.40219 ± 0.00037 | – | – | –
[2], x1 = 0.3815 | 1.41799 ± 0.00036 | 1.41451 ± 0.00036 | 1.41005 ± 0.00036 | – | – | –
[2], x1 = 0.4815 | 1.42515 ± 0.00035 | 1.42129 ± 0.00035 | 1.41679 ± 0.00035 | – | – | –
[2], x1 = 0.5911 | 1.43204 ± 0.00034 | 1.4279 ± 0.0003 | 1.42357 ± 0.00034 | – | – | –
[2], x1 = 0.6898 | 1.43765 ± 0.00033 | 1.43335 ± 0.00033 | 1.42901 ± 0.00033 | – | – | –
[2], x1 = 0.8208 | 1.4443 ± 0.00032 | 1.43965 ± 0.00032 | 1.43512 ± 0.00032 | – | – | –
[2], x1 = 0.9262 | 1.44906 ± 0.00032 | 1.44436 ± 0.00032 | 1.43974 ± 0.00032 | – | – | –
[2], x1 = 1 | 1.45224 ± 0.00031 | 1.44756 ± 0.00031 | 1.44279 ± 0.00031 | – | – | –

CCCCCl [1-chlorobutane] + C[N+](=O)[O-]
x1 = 1
Details | refractive index, 298.15 K | refractive index, 308.15 K | refractive index, 318.15 K | speed of sound, 298.15 K [m/s] | speed of sound, 308.15 K [m/s] | speed of sound, 318.15 K [m/s]
[1] | – | – | – | 1119 ± 1.2 | 1078 ± 1.2 | 1037.3 ± 1.2
[2] | 1.39953 ± 0.00032 | 1.39413 ± 0.00032 | 1.38851 ± 0.00032 | – | – | –

CCCCCCl [1-chloropentane] + C[N+](=O)[O-]
Details | refractive index, 298.15 K | refractive index, 308.15 K | refractive index, 318.15 K | speed of sound, 298.15 K [m/s] | speed of sound, 308.15 K [m/s] | speed of sound, 318.15 K [m/s]
[1], x1 = 0.1043 | – | – | – | 1276 ± 1.7 | 1237 ± 1.7 | 1197.9 ± 1.7
[1], x1 = 0.1721 | – | – | – | 1253.5 ± 1.6 | 1214.4 ± 1.6 | 1175.3 ± 1.6
[1], x1 = 0.2575 | – | – | – | 1231.2 ± 1.5 | 1192.3 ± 1.5 | 1153.4 ± 1.5
[1], x1 = 0.3466 | – | – | – | 1213.7 ± 1.5 | 1174.8 ± 1.5 | 1135.8 ± 1.5
[1], x1 = 0.4525 | – | – | – | 1198.2 ± 1.4 | 1159.2 ± 1.4 | 1120.1 ± 1.4
[1], x1 = 0.5435 | – | – | – | 1188.6 ± 1.4 | 1149.2 ± 1.3 | 1110.1 ± 1.3
[1], x1 = 0.6864 | – | – | – | 1177.1 ± 1.3 | 1137.8 ± 1.3 | 1098.5 ± 1.3
[1], x1 = 0.8325 | – | – | – | 1169.4 ± 1.2 | 1130.1 ± 1.2 | 1090.8 ± 1.2
[1], x1 = 0.8859 | – | – | – | 1167.6 ± 1.2 | 1128.1 ± 1.2 | 1088.9 ± 1.2
[1], x1 = 1 | – | – | – | 1164.2 ± 1.2 | 1124.9 ± 1.2 | 1085.8 ± 1.1
[2], x1 = 0.1044 | 1.38453 ± 0.00039 | 1.37934 ± 0.00039 | 1.37439 ± 0.00039 | – | – | –
[2], x1 = 0.1721 | 1.38722 ± 0.00038 | 1.3821 ± 0.0004 | 1.377 ± 0.001 | – | – | –
[2], x1 = 0.2575 | 1.39056 ± 0.00037 | 1.38539 ± 0.00037 | 1.38037 ± 0.00037 | – | – | –
[2], x1 = 0.3466 | 1.39367 ± 0.00036 | 1.38858 ± 0.00036 | 1.38354 ± 0.00036 | – | – | –
[2], x1 = 0.4525 | 1.39687 ± 0.00035 | 1.39181 ± 0.00035 | 1.38674 ± 0.00035 | – | – | –
[2], x1 = 0.5435 | 1.39934 ± 0.00034 | 1.39422 ± 0.00034 | 1.38916 ± 0.00034 | – | – | –
[2], x1 = 0.6864 | 1.40308 ± 0.00033 | 1.39792 ± 0.00033 | 1.39268 ± 0.00033 | – | – | –
[2], x1 = 0.8325 | 1.40646 ± 0.00032 | 1.4012 ± 0.0003 | 1.396 ± 0.001 | – | – | –
[2], x1 = 0.8859 | 1.4076 ± 0.00032 | 1.40244 ± 0.00032 | 1.3972 ± 0.0003 | – | – | –
[2], x1 = 1 | 1.41015 ± 0.00031 | 1.40501 ± 0.00031 | 1.39984 ± 0.00031 | – | – | –

C[N+](=O)[O-] [nitromethane] + CC(Cl)(Cl)Cl
x2 = 0
Details | refractive index, 298.15 K | refractive index, 308.15 K | refractive index, 318.15 K | speed of sound, 298.15 K [m/s] | speed of sound, 308.15 K [m/s] | speed of sound, 318.15 K [m/s]
[1] | – | – | – | 1321.6 ± 1.8 | 1281.9 ± 1.8 | 1242.5 ± 1.7
[2] | 1.37949 ± 0.0004 | 1.37473 ± 0.0004 | 1.36995 ± 0.0004 | – | – | –

C[N+](=O)[O-] [nitromethane] + CCCCCCl
x2 = 0
Details | refractive index, 298.15 K | refractive index, 308.15 K | refractive index, 318.15 K | speed of sound, 298.15 K [m/s] | speed of sound, 308.15 K [m/s] | speed of sound, 318.15 K [m/s]
[1] | – | – | – | 1321.7 ± 1.8 | 1282 ± 1.8 | 1242.6 ± 1.7
[2] | 1.37954 ± 0.0004 | 1.3747 ± 0.0004 | 1.36996 ± 0.0004 | – | – | –
